Measured values taken from patent US7977474B2, “Uses of porphyrin compounds” (Destiny Pharma Ltd., priority 2004, dated 2011).
Where two headings read alike, the source gives them in different places.

Assays:
[1] = Acute dermal toxicity test (OECD 402) (Example G); format: in vivo; conditions: 3.2 mM in a topical formulation
Description: Compound 10 was tested at 3.2 mM in a topical formulation in a standard acute dermal toxicity test to determine if any clinical or histological toxicity for the compound could be detected.
The acute toxicity protocol was based on OECD Guidelines for the testing of chemicals/Section 4—Health Effects Test Number 402: Acute Dermal Toxicity.

[2] = system: Enterococcus faecium; test: MIC and MBC, reference strains and clinical isolates (Example C); format: cell-based
Description: (§1) The Minimum Inhibitory Concentrations (MIC's) for Compound 10, over a range of reference strains and clinical isolates, were determined using IsoSensitest® broth and Minimum Bactericidal concentrations (MBC's) determined by subculture onto Columbia blood agar.
(§2) • 1. A 5 mg/ml stock solution of Compound 10 was made up in water • 2. A series of dilutions were undertaken to produce a range of concentrations between 32-0.001 mg/L • 3. The test microorganisms were grown up overnight in IsoSensitest® broth • 4. The cultures were then diluted with fresh broth to a final concentration of 10^4 organisms/ml and placed on a shaker for 90 minutes at 37° C. • 5. 90 μl of the broth culture containing the microorganisms were transferred to each of 12 wells in a row in a microtitre tray and repeated in a control tray—four organisms per tray. • 6. 90 μL of the appropriate Compound 10 dilution was then added to each well containing organisms to give a final dilution series from 16 mg/L to 0.0005 mg/L • 7. The solutions were mixed well and incubated in the dark for 24 hours • 8. […] The MBC values were recorded after overnight incubation of the subcultures. • 10. Controls of uninoculated broth and broth plus inoculum were undertaken for each organism in each tray Results

[3] = system: Staphylococcus epidermidis (methicillin sensitive); test: as above; format: cell-based; conditions: 37453, clinical isolate
Description: as §1, §2

[4] = system: Staphylococcus aureus (methicillin sensitive); test: as above; format: cell-based
Description: as §1, §2

[5] = system: Enterococcus faecalis; test: as above; format: cell-based
Description: as §1, §2

[6] = system: Staphylococcus epidermidis (methicillin resistant); test: as above; format: cell-based; conditions: for MIC: Staphylococcus epidermidis, dark 24 hours
Description: as §1, §2

[7] = system: Staphylococcus aureus (methicillin resistant); test: MIC (IsoSensitest broth) and MBC (subculture on blood agar), reference strains and clinical isolates (Example C); format: cell-based
Description: as §1, §2

[8] = system: normal human dermal fibroblasts (NHDF); test: Toxicity against human skin cells, MTT-assay (Example D); format: cell-based; conditions: 0.01-10 μM, 5 min, 1 h and 4 h incubation, then 24 h in the dark
Description: NHDF were incubated with different concentrations of Compound 10 for 5 min, 1 h and 4 h (0 μM, 0.01 μM, 0.1 μM, 1.0 μM, 10 μM). Cells were then incubated for 24 h in the dark. Toxicity was tested by standard MTT-assay. Cell viability was normalised to one, which means, the values of control cells were normalised to one. Grey dotted line: 5 min incubation; black dotted: 1 h incubation; black line: 4 h incubation; (n=3, mean±SD).
(§3) Test compounds were screened for toxicity against cultured human skin cells using normal human epidermal keratinoctes (NHEK) and normal human dermal fibroblasts (NHDF), purchased from CellSystems Biotechnologie GmbH, Germany.
(§4) The NHEK and NHDF cells were used between passages 3 and 10. The cells were seeded with 7.5 and/or 15×10^4 cells/well (microtitre plate) and were allowed to attach overnight in an incubator (37° C., 5% CO2). After incubation with different concentrations of the selected photosensitisers for various times, the cells were incubated for 24 hours in the dark.
(§5) Toxicity was tested by standard MTT-assay (Mossman et al., 1983 J. Immunological Methods 65: 55-63). MTT is an indicator of metabolically active cells. Dependent on enzyme activity in mitochondria a colour reaction can be visualised, which can be measured by ELISA reader (540 nm). […]

[9] = system: normal human epidermal keratinocytes (NHEK); test: as above; format: cell-based; conditions: 0.01-10 μM, 5 min, 1 h and 4 h incubation, then 24 h in the dark
Description: NHEK were incubated with different concentrations of Compound 10 for 5 min, 1 h and 4 h (0 μM, 0.01 μM, 0.1 μM, 1.0 μM, 10 μM). Cells were then incubated for 24 h in the dark. Toxicity was tested by standard MTT-assay. Cell viability was normalised to one, which means, the values of control cells were normalised to one. Red dotted line: 5 min incubation; black dotted: 1 h incubation; blue dotted: 4 h incubation only; (n=3, mean±SD).
as §3, §4, §5

[10] = system: Staphylococcus aureus BAA-44, a multi-drug resistant Methicillin Resistant Staphylococcus aureus (MRSA) strain; test: MIC and MBC of Compound 10 in the absence of light (Example B); format: cell-based
Description: The minimum inhibitory concentration (MIC) for an antimicrobial agent against a specific microorganism is defined as the minimum concentration of an antibacterial agent where no apparent visible growth of the organism is observed (FDA definition of Minimum Inhibitory Concentration). MIC's are typically determined using concentrations derived traditionally from serial twofold dilutions (National Committee for Clinical Laboratory Standards (NCCLS) Handbook M7-A5: “Methods for Dilution Antimicrobial Susceptibility Tests for Bacteria that Grow Aerobically; Approved Standard—5th Edition” Volume 20 Number 2. January 2000). The MIC for Compound 10 in the absence of light was investigated, using a protocol based on the MIC protocol produced by the NCCLS (National Committee for Clinical Laboratory Standards (NCCLS) Handbook M7-A5, supra).
Staphylococcus aureus BAA-44, a multi-drug resistant Methicillin Resistant Staphylococcus aureus (MRSA) strain obtained from the ATCC catalogue, was used in this study. The following concentrations of Compound 10 were investigated: 0.764; 0.382: 0.191; 0.0955; 0.0478; 0.0239, 0.0119, 0.00597, 0.00298, 0.00149, 0.00075 & 0.00037 μg/mL. Stock solutions were made up in distilled water and serial dilutions undertaken of this to produce the required concentrations immediately prior to use.
At least 3 to 5 well-isolated colonies of the same morphological type were selected from an agar plate culture and the growth transferred to a tube containing 100 mL of Isosensitest Broth and the broth culture is incubated at 37° C. overnight. The culture was then be diluted to a final density of 10^4 cells/mL with fresh Isosensitest Broth and incubated with shaking at 37° C. until the cells entered exponential growth.
0.09 mL of the adjusted inoculum was transferred into each of 24 wells of a polystyrene 96 well microtiter plate. A control well of bacteria alone in the presence of growth medium alone was included (as a positive control).
0.09 mL of the Compound 10 stock solutions from the dilution series were pipetted into the relevant well for the microtiter plates and incubated in the dark at 37° C. and the plates examined after 24 hours incubation to determine the turbidity in each well.

[11] = system: Escherichia coli; conditions: visible light after incubation; Valduga et al., 1999; cited from earlier work

C[N+](C)(C)CCCOc1ccc(-c2c3nc(cc4ccc([nH]4)c(-c4ccc(OCCC[N+](C)(C)C)cc4)c4nc(cc5ccc2[nH]5)C=C4)C=C3)cc1 [Compound 10, 5,15-bis-[4-(3-Trimethylammonio-propyloxy)-phenyl]-porphyrin dichloride]
histological toxicology of major organs [1]: No histological toxicology of any major organ (including the skin) was observed
acute toxic effect ([1]; dermal): does not result in any acute toxic effect
clinical toxicology ([1]; clinical, macroscopic and microscopic observation): no clinical toxicology was observed
MBC ([2]; E1, clinical isolate): 1 µg/mL
MIC ([2]; E1, clinical isolate, dark 24 hours): 0.5 µg/mL
MBC ([2]; E5, clinical isolate): 1 µg/mL
MBC ([2]; E19, clinical isolate): 0.5 µg/mL
MBC ([2]; E44, clinical isolate): 0.5 µg/mL
MBC ([2]; NCTC12204, NCTC 12204): 1 µg/mL
MBC [3]: 0.5 µg/mL
MIC ([3]; dark 24 hours): 0.5 µg/mL
MBC ([4]; ATCC25923, ATCC 25923): 1 µg/mL
MIC ([4]; ATCC25923, ATCC 25923, dark 24 hours): 0.5 µg/mL
MBC ([4]; NCTC6571, NCTC 6571): 0.5 µg/mL
MIC ([4]; NCTC6571, NCTC 6571, dark 24 hours): 0.5 µg/mL
MBC ([5]; ATCC29212, ATCC 29212): > 1 µg/mL
MBC ([5]; E3, clinical isolate): 1 µg/mL
MIC ([5]; E3, clinical isolate, dark 24 hours): 0.5 µg/mL
MBC ([5]; E4, clinical isolate): 0.5 µg/mL
MBC ([5]; E10, clinical isolate): 1 µg/mL
MBC ([5]; E37, clinical isolate): 1 µg/mL
MBC ([6]; Staphylococcus epidermidis, 33659, clinical isolate): 1 µg/mL
MBC ([6]; Staphylococcus epidermidis, 33759, clinical isolate): 1 µg/mL
MBC ([6]; Staphylococcus epidermidis, 36572, clinical isolate): 0.25 µg/mL
MBC ([6]; Staphylococcus epidermidis, 38808, clinical isolate): 0.5 µg/mL
MIC ([6]; 24 h, 33659, clinical isolate): 0.5 µg/mL
MIC ([6]; 24 h, 33759, clinical isolate): 0.5 µg/mL
MIC ([6]; 24 h, 36572, clinical isolate): 0.25 µg/mL
MIC ([6]; 24 h, 38808, clinical isolate): 0.5 µg/mL
MIC ([7]; 24 h, EMRSA-16, clinical isolate, dark 24 hours): 0.5 µg/mL
MIC ([7]; ATCCBAA44, 24 h, ATCC BAA-44 Experiment 1, dark 24 hours): 0.5 µg/mL
MIC ([7]; ATCCBAA44, 24 h, ATCC BAA-44 Experiment 2, dark 24 hours): 0.5 µg/mL
MIC ([7]; ATCCBAA44, 24 h, ATCC BAA-44 Experiment 3, dark 24 hours): 2 µg/mL
MIC ([7]; ATCCBAA44, 24 h, ATCC BAA-44 Experiment 4, dark 24 hours): 0.5 µg/mL
MIC ([7]; ATCCBAA44, 24 h, ATCC BAA-44 Experiment 5, dark 24 hours): 0.5 µg/mL
MIC ([7]; ATCCBAA44, 24 h, ATCC BAA-44 Experiment 6, dark 24 hours): 0.5 µg/mL
MBC ([7]; ATCCBAA44, ATCC BAA-44 Experiment 1): 0.5 µg/mL
MBC ([7]; ATCCBAA44, ATCC BAA-44 Experiment 2): 1 µg/mL
MBC ([7]; ATCCBAA44, ATCC BAA-44 Experiment 3): 2 µg/mL
MBC ([7]; ATCCBAA44, ATCC BAA-44 Experiment 4): 1 µg/mL
MBC ([7]; ATCCBAA44, ATCC BAA-44 Experiment 5): > 1 µg/mL
MBC ([7]; ATCCBAA44, ATCC BAA-44 Experiment 6): 1 µg/mL
MBC ([7]; EMRSA-15, clinical isolate): 1 µg/mL
MBC ([7]; EMRSA-16, clinical isolate): 0.5 µg/mL
MIC ([7]; NCTC11939, 24 h, NCTC 11939 (EMRSA-1), dark 24 hours): 0.5 µg/mL
MBC ([7]; NCTC11939, NCTC 11939 (EMRSA-1)): 0.5 µg/mL
innate toxicity (MTT cell viability) [8]: does not demonstrate an innate toxicity
innate toxicity (MTT cell viability) [9]: does not demonstrate an innate toxicity
MIC ([10]; Series 2, dark): 0.0955 µg/mL
MIC ([10]; Staphylococcus aureus, Series 1, dark, read-out: MIC): 0.0955 µg/mL
MBC ([10]; Staphylococcus aureus, absence of light): 0.382 µg/mL
MIC ([10]; Staphylococcus aureus, absence of light, 24 hours incubation at 37° C., read-out: MIC): 0.0955 µg/mL

C[n+]1ccc(-c2c3nc(c(-c4cc[n+](C)cc4)c4ccc([nH]4)c(-c4cc[n+](C)cc4)c4nc(c(-c5cc[n+](C)cc5)c5ccc2[nH]5)C=C4)C=C3)cc1 [Compound T4MPyP, 5,10,15,20-tetrakis-(4-N-methylpyridyl)-porphine]
inactivation of Escherichia coli [11]: efficiently inactivated
